Test [1] deals with T1, recombinant renin in human plasma (Homo sapiens, UniProt P00797).
T1 construct: purchased Proteos
T1 sequence (P00797 67-406): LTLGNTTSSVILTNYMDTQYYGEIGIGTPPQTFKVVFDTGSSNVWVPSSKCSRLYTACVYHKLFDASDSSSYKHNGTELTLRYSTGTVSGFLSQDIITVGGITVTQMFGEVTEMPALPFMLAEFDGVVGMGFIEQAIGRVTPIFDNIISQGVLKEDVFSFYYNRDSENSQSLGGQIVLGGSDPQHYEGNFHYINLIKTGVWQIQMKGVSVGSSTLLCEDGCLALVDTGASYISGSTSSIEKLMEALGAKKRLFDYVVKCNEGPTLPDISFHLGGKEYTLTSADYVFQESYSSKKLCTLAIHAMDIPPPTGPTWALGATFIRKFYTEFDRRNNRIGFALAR
Kind of test: Inhibition of renin in human plasma (QFRET, plasma). The test is classed as biochemical. The conditions noted are these: human EDTA plasma with 1 nM recombinant renin added; 37° C., 1 hour. The procedure: Inhibition of Renin in Human Plasma
Human EDTA-collected plasma is rapidly thawed in warm water and centrifuged at 2900 g for 15 minutes at 4° C. The supernatant is collected and recombinant renin (Proteos) is added at a final concentration of 1 nM. The plasma is transferred to a Costar black 384 well plate (#3573). Renin inhibitors are added from a 17.5 fold concentrated DMSO solution and pre-incubated at 37° C. for 10 minutes. The internally-quench fluorescent peptide QXL520™-[…](5-FAM) (Anaspec), SEQ ID NO: 2, is diluted in 3M Tris pH 7.2, 200 mM EDTA and added to the plasma. The final concentrations are: 6 μM substrate, 342 mM Tris, 23 mM EDTA. The plate is incubated at 37° C. for 1 hour. The plate is read in a SpectraMax Gemini EM reader set at an excitation wavelength of 490 nm and an emission wavelength of 520 nm at times 0 and 1 hour. Background fluorescence at t=0 is subtracted from the measurement at t=1 hour. Inhibitory activity of the compounds is expressed as IC50.

The target of another test is T2, Human recombinant renin (Homo sapiens, UniProt P00797).
T2 construct: purchased Proteos
T2 sequence (P00797 67-406): T1 sequence (P00797 67-406)
Kind of test: Inhibition of human recombinant renin (QFRET, buffer). The settings on record: buffer: 50 mM MOPS pH 7.4, 100 mM NaCl, 0.002% Tween 20; 37° C., 3 hours. The format is biochemical. The procedure: Inhibition of Human Recombinant Renin
Human recombinant renin (Proteos) in 50 mM MOPS pH 7.4, 100 mM NaCl, 0.002% Tween 20 at a final concentration of […] is incubated with inhibitors from a 50 fold concentrated DMSO solution and 6 μM of an internally-quenched fluorescent peptide: DNP-[…]D,L-Amp (SEQ ID NO: 1); Paschalidou K. et al., Biochem J., 2004, 382, 1031). The reactions take place in a Costar 384 well black plate (#3573) at 37° C. for 3 hours. Fluorescence is measured at times 0 and 3 hours with a SpectraMax Gemini EM reader set at an excitation wavelength of 328 nm and at an emission wavelength of 388 nm. Background fluorescence at t=0 is subtracted from the measurement at t=3 hours. Inhibitory activity of the compounds is expressed as IC50.

For the compound `COC[C@H](C)COCc1ccc([C@@]2(O)CCNC[C@@H]2c2noc(-c3ccccc3CCNC(C)=O)c2Br)cc1` [Structure 89], the IC50 in test [1] is 1.2 nM; at Human recombinant renin, 0.32 nM.

For `CC(=O)NCCc1ccc(C(F)(F)F)cc1-c1ccc([C@H]2CNCC[C@@H]2c2ccc(F)c(F)c2)c(Cl)c1` (racemic) [Structure 46], the results for the IC50 (in test [1]; at Human recombinant renin) were 280 nM and 0.78 nM, respectively.

As to `COCCCc1ccccc1-c1ccc([C@H]2CNCC[C@]2(OCC(O)CO)c2ccc(F)c(F)c2)c(C)c1` (mixture of isomers) [Structure 48], the results for the IC50 (in test [1]; at Human recombinant renin) were 2020 nM and 16 nM, respectively.

In the case of `Cc1cc(-c2ccccc2COc2cccnc2)ccc1[C@H]1CNCC[C@@H]1c1cc(F)cc(F)c1` (racemic) [Structure 36], the concentration for half-maximal inhibition (IC50) was 94 nM in test [1] and 0.55 nM on Human recombinant renin.

As to `COCCCc1ccccc1-c1ccc([C@H]2CNCC[C@@H]2c2cccnc2N)c(Cl)c1` (racemic) [Structure 53], the 50% inhibitory concentration (IC50) in test [1] worked out at 250 nM; at Human recombinant renin, 12 nM.

Regarding `CC(=O)NCc1ccccc1-c1ccc([C@H]2CNCC[C@@H]2c2ccc(F)c(F)c2)cc1` (racemic) [Structure 49], the IC50 in test [1] was found to be 9040 nM; at Human recombinant renin it was 1710 nM.

As to `Cc1cc(-c2ccccc2CCCO)ccc1[C@H]1CNCC[C@@H]1c1cc(F)cc(F)c1` (racemic) [Structure 7, (+/−)-trans-3-{4′-[4-(3,5-difluorophenyl)piperidin-3-yl]-3′-methylbiphenyl-2-yl}propan-1-ol], the figures for the IC50 (in test [1]; at Human recombinant renin) were 3150 nM and 85 nM, respectively.

Turning to `Cc1cc(-c2ccccc2CCNC(=O)c2ccn(C)n2)ccc1[C@H]1CNCC[C@@H]1c1cc(F)cc(F)c1` (racemic) [Structure 23], the IC50 in test [1] was found to be 69 nM; on Human recombinant renin, 26 nM.

For `O[C@]1(c2ccc(F)c(F)c2)CCNC[C@@H]1c1onc(-c2ccccc2Cl)c1Br` [Structure 72], the half-inhibitory concentration (IC50) is 27 nM in test [1] and 1.1 nM at Human recombinant renin.

As to `CC(=O)NCCc1ccccc1-c1onc([C@H]2CNCC[C@@H]2c2ccc(OCCOc3c(Cl)cc(C)cc3Cl)cc2)c1C(C)=O` [Structure 110], the values for the IC50 (in test [1]; on Human recombinant renin) were 1.2 nM and 0.09 nM, respectively.

Take `COC[C@H](C)COc1ccc([C@@]2(O)CCNC[C@@H]2c2ccc(-c3ccccc3CCNC(C)=O)cc2C)cc1` [Structure 131]: the concentration for half-maximal inhibition (IC50) worked out at 18 nM in test [1] and 1.2 nM on Human recombinant renin.

In the case of `CC(=O)NCCc1ccccc1-c1ccc([C@H]2CNCC[C@]2(O)c2ccc(OC(F)(F)F)c(F)c2)c(C)c1` [Structure 132], the IC50 in test [1] was found to be 18 nM; at Human recombinant renin it was 0.4 nM.

For `CC(=O)NCCc1ccccc1-c1onc([C@H]2CNCC[C@]2(O)c2ccc(F)c(F)c2)c1Br` [Structure 80], the 50% inhibitory concentration (IC50) in test [1] was 0.6 nM; on Human recombinant renin, 0.23 nM.

Take `Cc1cc(-c2ccccc2CCNC(=O)C(F)(F)C(F)(F)F)ccc1[C@H]1CNCC[C@@H]1c1cc(F)cc(F)c1` (racemic) [Structure 32]: the IC50 in test [1] came out at 75 nM; on Human recombinant renin, 23 nM.

Turning to `COCCCc1cc(OCCOC)ccc1-c1ccc([C@H]2CNCC[C@@H]2c2cccnc2)c(C)c1` (racemic) [Structure 6], the IC50 was 1800 nM in test [1] and 380 nM at Human recombinant renin.

Regarding `COC[C@H](C)COCc1ccc([C@@]2(O)CCNC[C@@H]2c2ccc(-c3ccccc3CCNC(C)=O)cc2Cl)cc1` [Structure 126], the IC50 is 0.52 nM in test [1] and 0.08 nM on Human recombinant renin.

As to `COC[C@H](C)COCc1ccc([C@@]2(O)CCNC[C@@H]2c2ccc(-c3ccccc3CCNC(=O)CO)cc2C)cc1` [Structure 128], the IC50 in test [1] turned out to be 0.57 nM; at Human recombinant renin, 0.07 nM.

For the compound `O[C@]1(c2ccc(F)c(F)c2)CCNC[C@@H]1c1onc(-c2cccc3ccccc23)c1Br` [Structure 75], the IC50 stood at 4.7 nM in test [1] and 0.064 nM on Human recombinant renin.

For the compound `COCC(F)(F)COCc1ccc([C@@]2(O)CCNC[C@@H]2c2ccc(-c3ccccc3CCNC(C)=O)cc2C)cc1` [Structure 121], the IC50 in test [1] is 0.32 nM; on Human recombinant renin, 0.08 nM.

In the case of `CC(=O)NCCc1ccccc1-c1ccc([C@H]2CNCC[C@@H]2c2ccn(C)c(=O)c2)c(Cl)c1` [Structure 59], the IC50 in test [1] was 3.4 nM; at Human recombinant renin it was 2.1 nM.

As for `CC(=O)NCCc1c(F)cccc1-c1onc([C@H]2CNCC[C@]2(O)c2ccc(F)c(F)c2)c1Br` [Structure 87], the results for the IC50 (in test [1]; at Human recombinant renin) were 0.62 nM and 0.16 nM, respectively.

Take `Cc1ccccc1OCc1ccccc1-c1ccc([C@H]2CNCC[C@@H]2c2cc(F)cc(F)c2)c(C)c1` (racemic) [Structure 34]: the concentration for half-maximal inhibition (IC50) in test [1] turned out to be 4980 nM; on Human recombinant renin, 7.5 nM.

Take `C[C@H]1C[C@H](c2ccc(F)c(F)c2)[C@@H](c2nnc(-c3cccc(Cl)c3Cl)n2C2CC2)CN1` [Structure 93]: the IC50 in test [1] came to 0.62 nM; on Human recombinant renin, 0.14 nM.

For `Cc1cc(-c2ccccc2OCc2ccccc2)ccc1[C@H]1CNCC[C@@H]1c1cc(F)cc(F)c1` (racemic) [Structure 37], the figures for the IC50 (in test [1]; at Human recombinant renin) were 12400 nM and 87 nM, respectively.

`CC(=O)NCCc1ccccc1-c1nnc([C@H]2CN[C@@H](C)C[C@@H]2c2ccc(F)c(F)c2)n1C1CC1` [Structure 94]: the concentration for half-maximal inhibition (IC50) in test [1] was 3 nM; on Human recombinant renin, 1.5 nM.

With `CC(=O)NCCc1ccccc1-c1onc([C@H]2CNCC[C@]2(O)c2ccc(F)c(F)c2)c1C(C)=O` [Structure 83], the concentration for half-maximal inhibition (IC50) was found to be 4.2 nM in test [1] and 2.8 nM on Human recombinant renin.

In the case of `COC[C@H](C)COCc1ccc([C@@]2(O)CCNC[C@@H]2c2ccc(-c3ccccc3CCN3CCOC3=O)cc2C)cc1` [Structure 125], the values for the 50% inhibitory concentration (IC50) (in test [1]; at Human recombinant renin) were 76 nM and 4.6 nM, respectively.

`CC(=O)NCCc1ccccc1-c1ccc([C@H]2CNCC[C@@H]2c2cc(F)cc(F)c2)c(C)c1` [Structure 16]: the figures for the half-maximal inhibitory concentration (IC50) (in test [1]; on Human recombinant renin) were 16 nM and 0.59 nM, respectively.

Take `CC(=O)NCCc1ccccc1-c1ccc([C@@H]2CNCC[C@H]2c2cccnc2)c(C)c1` [Structure 5]: the IC50 was determined as 7280 nM in test [1] and 1410 nM at Human recombinant renin.

As to `O[C@]1(c2ccc(F)c(F)c2)CCNC[C@@H]1c1cc(-c2c(Cl)cccc2Cl)on1` [Structure 79], the IC50 is more than 28000 nM in test [1] and 1330 nM on Human recombinant renin.

Consider `Cc1ccc(Cl)c(-c2noc([C@H]3CNCC[C@]3(O)c3ccc(F)c(F)c3)c2Br)c1F` [Structure 74], for which the 50% inhibitory concentration (IC50) stood at 430 nM in test [1] and 4.9 nM at Human recombinant renin.

In the case of `CC(=O)NCCc1ccccc1-c1ccc([C@@H]2CNCC[C@H]2c2cccnc2)c(Cl)c1` [Structure 14], the IC50 is more than 9500 nM in test [1] and 2630 nM at Human recombinant renin.

Turning to `COCCCC(CNC(C)=O)c1ccccc1-c1onc([C@H]2CNCC[C@@H]2c2ccc(OCCOc3c(Cl)cc(C)cc3Cl)cc2)c1Br` (stereo partly shown) [Structure 108], the 50% inhibitory concentration (IC50) in test [1] turned out to be 2 nM; on Human recombinant renin it was 0.07 nM.

On to `CC(=O)NCCc1ccccc1-c1ccc([C@@H]2CNCC[C@H]2c2cc(F)cc(F)c2)c(C)c1` [Structure 17], for which the concentration for half-maximal inhibition (IC50) in test [1] is 11600 nM; on Human recombinant renin, 530 nM.

For `Cc1cc(-c2ccccc2CCNC(=O)c2ccccc2)ccc1[C@H]1CNCC[C@@H]1c1cc(F)cc(F)c1` (racemic) [Structure 22], the figures for the IC50 (in test [1]; at Human recombinant renin) were 1170 nM and 20 nM, respectively.

As for `CC(=O)NCCc1ccccc1-c1ccc([C@H]2CNCC[C@@H]2c2cccnc2)c(C)c1` (racemic) [Structure 3], the results for the IC50 (in test [1]; at Human recombinant renin) were 41 nM and 9.2 nM, respectively.

`CC(=O)NCCc1ccccc1-c1ccc([C@@H]2CNCC[C@H]2c2ccn(C)c(=O)c2)c(Cl)c1` [Structure 60]: the IC50 in test [1] worked out at 1350 nM; at Human recombinant renin, 710 nM.

In the case of `COCCCc1ccccc1-c1ccc([C@H]2CNCC[C@@H]2c2ccc(N)nc2)c(Cl)c1` (racemic) [Structure 52], the IC50 in test [1] was 1630 nM; at Human recombinant renin, 150 nM.

For `O=C(NCCc1ccccc1-c1ccc([C@H]2CNCC[C@@H]2c2ccc(F)c(F)c2)c(Cl)c1)C(F)(F)F` (racemic) [Structure 41], the half-maximal inhibitory concentration (IC50) was found to be 6.6 nM in test [1] and 0.1 nM on Human recombinant renin.

Turning to `O[C@]1(c2ccc(F)c(F)c2)CCNC[C@@H]1c1cc(-c2ccc(F)cc2Cl)no1` [Structure 69], the IC50 on Human recombinant renin was found to be 2500 nM.

As usually defined, the IC50 is the concentration that inhibits the measured activity by half.

These data come from patent US20120035214A1, “RENIN INHIBITORS” (Merck Canada Inc., priority 2009, published 2012).
